Key:
Type in all cases: cell-based
Mino cells = assay: Antiproliferative effect, MTS cell viability assay, Mino cells; conditions: Homo sapiens, MINO, Mino mantle cell lymphoma cells; read-out: IC50 (anti-proliferation) Mino cells
Method in brief: (§1)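 Mino and JeKo-1 mantle B-cell lymphoma lines were exposed to compound at 0, 0.001, 0.01, 0.1, 1 and 10 μM for 72 h. Viability was read by MTS reduction to formazan, measured as absorbance at 490 nm.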

BTK = BTK (Homo sapiens, UniProt Q06187); assay: BTK degradation, DC50 and Dmax of Table 1 (cell line not given); design: endogenous in cells; conditions: for DC50: concentration giving 50% reduction of BTK expression level
JeKo-1 cells = assay: Antiproliferative effect, MTS cell viability assay, JeKo-1 cells; conditions: Homo sapiens; JeKo-1 mantle cell lymphoma cells; read-out: IC50 (anti-proliferation) JeKO-1 cells
Method in brief: as §1

BTK, sequence (Q06187 whole entry): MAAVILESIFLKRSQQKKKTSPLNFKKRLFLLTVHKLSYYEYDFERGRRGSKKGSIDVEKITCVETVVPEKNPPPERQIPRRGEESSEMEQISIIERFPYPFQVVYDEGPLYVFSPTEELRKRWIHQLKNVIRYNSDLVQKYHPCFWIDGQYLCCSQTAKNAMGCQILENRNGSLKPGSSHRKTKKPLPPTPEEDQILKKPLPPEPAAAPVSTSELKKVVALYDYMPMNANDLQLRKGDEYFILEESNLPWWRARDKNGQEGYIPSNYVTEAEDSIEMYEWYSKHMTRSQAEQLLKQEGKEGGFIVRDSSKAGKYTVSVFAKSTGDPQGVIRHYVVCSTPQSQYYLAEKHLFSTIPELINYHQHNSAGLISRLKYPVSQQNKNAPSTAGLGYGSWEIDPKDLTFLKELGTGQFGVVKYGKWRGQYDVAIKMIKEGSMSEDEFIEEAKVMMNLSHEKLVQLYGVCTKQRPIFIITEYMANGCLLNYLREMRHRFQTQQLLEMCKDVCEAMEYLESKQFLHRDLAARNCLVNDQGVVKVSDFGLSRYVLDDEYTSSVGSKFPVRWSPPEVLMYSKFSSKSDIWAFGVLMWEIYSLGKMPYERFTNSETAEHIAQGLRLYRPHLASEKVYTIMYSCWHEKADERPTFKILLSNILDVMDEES

Row | SMILES | Dmax (BTK) | DC50 (BTK) | IC50 (Mino cells) | IC50 (JeKo-1 cells)
1 | Nc1ncnc2c1c(-c1ccc(Oc3ccccc3)cc1)nn2[C@@H]1CCCN(CC2CCN(C(=O)N3CCC(CCN4CCN(c5ccc6c(c5)CN(C5CCC(=O)NC5=O)C6=O)CC4)CC3)CC2)C1 (stereo partly drawn) [Compound 34, 3-(5-(4-(2-(1-(4-(((R)-3-(4-amino-3-(4-phenoxyphenyl)-1H-pyrazolo[3,4-d]pyrimidin-1-yl)piperidin-1-yl)methyl)piperidine-1-carbonyl)piperidin-4-yl)ethyl)piperazin-1-yl)-1-oxoisoindolin-2-yl)piperidine-2,6-dione] | > 90% | > 50 nM | 1000 to 10000 nM | 1000 to 10000 nM
2 | Nc1ncnc2c1c(-c1ccc(Oc3ccccc3)cc1)nn2[C@@H]1CCCN(C(=O)N2CCN(CCCC3CCN(c4ccc5c(c4)CN(C4CCC(=O)NC4=O)C5=O)CC3)CC2)C1 (stereo partly drawn) [Compound 110, 3-(5-(4-(3-(4-((R)-3-(4-amino-3-(4-phenoxyphenyl)-1H-pyrazolo[3,4-d]pyrimidin-1-yl)piperidine-1-carbonyl)piperazin-1-yl)propyl)piperidin-1-yl)-1-oxoisoindolin-2-yl)piperidine-2,6-dione] | > 75% | > 50 nM | > 10000 nM | > 10000 nM
3 | Nc1ncnc2c1c(-c1ccc(Oc3ccccc3)cc1)nn2[C@@H]1CCCN(C(=O)N2CCC(CCCN3CCN(c4ccc5c(c4)CN(C4CCC(=O)NC4=O)C5=O)CC3)CC2)C1 (stereo partly drawn) [Compound 106, 3-(5-(4-(3-(1-((R)-3-(4-amino-3-(4-phenoxyphenyl)-1H-pyrazolo[3,4-d]pyrimidin-1-yl)piperidine-1-carbonyl)piperidin-4-yl)propyl)piperazin-1-yl)-1-oxoisoindolin-2-yl)piperidine-2,6-dione] | > 75% | > 50 nM | > 10000 nM | > 10000 nM
4 | Nc1ncnc2c1c(-c1ccc(Oc3ccccc3)cc1)nn2C1CCN(C(=O)N2CCN(CCCC3CCN(c4ccc5c(c4)CN(C4CCC(=O)NC4=O)C5=O)CC3)CC2)CC1 (centres unmarked) [Compound 122, 3-(5-(4-(3-(4-(4-(4-amino-3-(4-phenoxyphenyl)-1H-pyrazolo[3,4-d]pyrimidin-1-yl)piperidine-1-carbonyl)piperazin-1-yl)propyl)piperidin-1-yl)-1-oxoisoindolin-2-yl)piperidine-2,6-dione] | > 75% | > 50 nM | 1000 to 10000 nM | 1000 to 10000 nM
5 | Nc1ncnc2c1c(-c1ccc(Oc3ccccc3)cc1)nn2[C@@H]1CCCN(C2CCN(CCN3CCC(c4ccc5c(c4)CN(C4CCC(=O)NC4=O)C5=O)CC3)CC2)C1 (stereo partly drawn) [Compound 150, 3-(5-(1-(2-((R)-3-(4-amino-3-(4-phenoxyphenyl)-1H-pyrazolo[3,4-d]pyrimidin-1-yl)-[1,4′-bipiperidin]-1′-yl)ethyl)piperidin-4-yl)-1-oxoisoindolin-2-yl)piperidine-2,6-dione] | > 75% | 10 to 50 nM | > 10000 nM | 1000 to 10000 nM
6 | Nc1ncnc2c1c(-c1ccc(Oc3ccccc3)cc1)nn2[C@@H]1CCCN(C2CCN(CCN3CCC(c4ccc5c(c4)C(=O)N(C4CCC(=O)NC4=O)C5=O)CC3)CC2)C1 (stereo partly drawn) [Compound 149, 5-(1-(2-((R)-3-(4-amino-3-(4-phenoxyphenyl)-1H-pyrazolo[3,4-d]pyrimidin-1-yl)-[1,4′-bipiperidin]-1′-yl)ethyl)piperidin-4-yl)-2-(2,6-dioxopiperidin-3-yl)isoindoline-1,3-dione] | > 90% | 10 to 50 nM | 1000 to 10000 nM | > 10000 nM
7 | Nc1ncnc2c1c(-c1ccc(Oc3ccccc3)cc1)nn2[C@@H]1CCCN(C2CCN(C(=O)N3CCN(CCC4CCN(c5ccc6c(c5)CN(C5CCC(=O)NC5=O)C6=O)CC4)CC3)CC2)C1 (stereo partly drawn) [Compound 178, 3-(5-(4-(2-(4-((R)-3-(4-amino-3-(4-phenoxyphenyl)-1H-pyrazolo[3,4-d]pyrimidin-1-yl)-[1,4′-bipiperidine]-1′-carbonyl)piperazin-1-yl)ethyl)piperidin-1-yl)-1-oxoisoindolin-2-yl)piperidine-2,6-dione] | > 75% | > 50 nM | > 10000 nM | > 10000 nM
8 | Nc1ncnc2c1c(-c1ccc(Oc3ccccc3)cc1)nn2C1CCN(C(=O)N2CCC(CCCN3CCC(c4ccc5c(c4)CN(C4CCC(=O)NC4=O)C5=O)CC3)CC2)CC1 (centres unmarked) [Compound 128, 3-(5-(1-(3-(1-(4-(4-amino-3-(4-phenoxyphenyl)-1H-pyrazolo[3,4-d]pyrimidin-1-yl)piperidine-1-carbonyl)piperidin-4-yl)propyl)piperidin-4-yl)-1-oxoisoindolin-2-yl)piperidine-2,6-dione] | > 90% | > 50 nM | 1000 to 10000 nM | > 10000 nM

Further lines, with some results ahead:

Row | Dmax (BTK) | DC50 (BTK) | SMILES | IC50 (Mino cells) | IC50 (JeKo-1 cells)
9 | > 90% | < 10 nM | Nc1ncnc2c1c(-c1ccc(Oc3ccccc3)cc1)nn2[C@@H]1CCCN(C(=O)N2CCN(CCN3CCN(c4ccc5c(c4)CN(C4CCC(=O)NC4=O)C5=O)CC3)CC2)C1 (stereo partly drawn) [Compound 66, 3-(5-(4-(2-(4-((R)-3-(4-amino-3-(4-phenoxyphenyl)-1H-pyrazolo[3,4-d]pyrimidin-1-yl)piperidine-1-carbonyl)piperazin-1-yl)ethyl)piperazin-1-yl)-1-oxoisoindolin-2-yl)piperidine-2,6-dione] | 1000 to 10000 nM | < 1000 nM
10 | > 90% | 10 to 50 nM | Nc1ncnc2c1c(-c1ccc(Oc3ccccc3)cc1)nn2[C@@H]1CCCN(C(=O)N2CCC(C3CCN(c4ccc5c(c4)CN(C4CCC(=O)NC4=O)C5=O)CC3)CC2)C1 (stereo partly drawn) [Compound 50, 3-(5-(1′-((R)-3-(4-amino-3-(4-phenoxyphenyl)-1H-pyrazolo[3,4-d]pyrimidin-1-yl)piperidine-1-carbonyl)-[4,4′-bipiperidin]-1-yl)-1-oxoisoindolin-2-yl)piperidine-2,6-dione] | 1000 to 10000 nM | 1000 to 10000 nM
11 | > 90% | < 10 nM | Nc1ncnc2c1c(-c1ccc(Oc3ccccc3)cc1)nn2C1CCN(CCOCCOCCC2CCN(c3ccc4c(c3)C(=O)N(C3CCC(=O)NC3=O)C4=O)CC2)CC1 (centres unmarked) [Compound 17, 5-(4-(2-(2-(2-(4-(4-amino-3-(4-phenoxyphenyl)-1H-pyrazolo[3,4-d]pyrimidin-1-yl)piperidin-1-yl)ethoxy)ethoxy)ethyl)piperidin-1-yl)-2-(2,6-dioxopiperidin-3-yl)isoindoline-1,3-dione] | 1000 to 10000 nM | 1000 to 10000 nM
12 | > 90% | < 10 nM | Nc1ncnc2c1c(-c1ccc(Oc3ccccc3)cc1)nn2[C@@H]1CCCN(C(=O)N2CCN(CCN3CCC(c4ccc5c(c4)CN(C4CCC(=O)NC4=O)C5=O)CC3)CC2)C1 (stereo partly drawn) [Compound 70, 3-(5-(1-(2-(4-((R)-3-(4-amino-3-(4-phenoxyphenyl)-1H-pyrazolo[3,4-d]pyrimidin-1-yl)piperidine-1-carbonyl)piperazin-1-yl)ethyl)piperidin-4-yl)-1-oxoisoindolin-2-yl)piperidine-2,6-dione] | 1000 to 10000 nM | 1000 to 10000 nM
13 | > 90% | 10 to 50 nM | Nc1ncnc2c1c(-c1ccc(Oc3ccccc3)cc1)nn2C1CCN(CC2CCN(C(=O)N3CCC(CN4CCN(c5ccc6c(c5)CN(C5CCC(=O)NC5=O)C6=O)CC4)CC3)CC2)CC1 (centres unmarked) [Compound 42, 3-(5-(4-((1-(4-((4-(4-amino-3-(4-phenoxyphenyl)-1H-pyrazolo[3,4-d]pyrimidin-1-yl)piperidin-1-yl)methyl)piperidine-1-carbonyl)piperidin-4-yl)methyl)piperazin-1-yl)-1-oxoisoindolin-2-yl)piperidine-2,6 dione] | < 1000 nM | < 1000 nM
14 | > 90% | 10 to 50 nM | Nc1ncnc2c1c(-c1ccc(Oc3ccccc3)cc1)nn2C1CCCN(CCOCCN2CCN(c3ccc4c(c3)CN(C3CCC(=O)NC3=O)C4=O)CC2)C1 (centres unmarked) [Compound 8, 3-(5-(4-(2-(2-(3-(4-amino-3-(4-phenoxyphenyl)-1H-pyrazolo[3,4-d]pyrimidin-1-yl)piperidin-1-yl)ethoxy)ethyl)piperazin-1-yl)-1-oxoisoindolin-2-yl)piperidine-2,6-dione] | 1000 to 10000 nM | 1000 to 10000 nM
15 | > 75% | 10 to 50 nM | Nc1ncnc2c1c(-c1ccc(Oc3ccccc3)cc1)nn2[C@@H]1CCCN(CC2CCN(CCCN3CCC(c4ccc5c(c4)CN(C4CCC(=O)NC4=O)C5=O)CC3)CC2)C1 (stereo partly drawn) [Compound 140, 3-(5-(1-(3-(4-(((R)-3-(4-amino-3-(4-phenoxyphenyl)-1H-pyrazolo[3,4-d]pyrimidin-1-yl)piperidin-1-yl)methyl)piperidin-1-yl)propyl)piperidin-4-yl)-1-oxoisoindolin-2-yl)piperidine-2,6-dione] | 1000 to 10000 nM | > 10000 nM
16 | > 90% | 10 to 50 nM | Nc1ncnc2c1c(-c1ccc(Oc3ccccc3)cc1)nn2C1CCCN(CCOCCN2CCC(c3ccc4c(c3)CN(C3CCC(=O)NC3=O)C4=O)CC2)C1 (centres unmarked) [Compound 16, 3-(5-(1-(2-(2-(3-(4-amino-3-(4-phenoxyphenyl)-1H-pyrazolo[3,4-d]pyrimidin-1-yl)piperidin-1-yl)ethoxy)ethyl)piperidin-4-yl)-1-oxoisoindolin-2-yl)piperidine-2,6-dione] | 1000 to 10000 nM | 1000 to 10000 nM
17 | > 90% | 10 to 50 nM | Nc1ncnc2c1c(-c1ccc(Oc3ccccc3)cc1)nn2[C@@H]1CCCN(C2CCN(C(=O)N3CCC(CC4CCN(c5ccc6c(c5)CN(C5CCC(=O)NC5=O)C6=O)CC4)CC3)CC2)C1 (stereo partly drawn) [Compound 168, 3-(5-(4-((1-((R)-3-(4-amino-3-(4-phenoxyphenyl)-1H-pyrazolo[3,4-d]pyrimidin-1-yl)-[1,4′-bipiperidine]-1′-carbonyl)piperidin-4-yl)methyl)piperidin-1-yl)-1-oxoisoindolin-2-yl)piperidine-2,6-dione] | < 1000 nM | 1000 to 10000 nM
